These compounds were tested on S. aureus UC ® 9213 (assay: In vivo murine assay, ED50 against S. aureus UC 9213 infection (survival, female mice)). Conditions: Staphylococcus aureus, UC9213, 144 h; PO; female mice infected intraperitoneally; dosed one and five hours after infection, six dose levels; survival six days, probit analysis; read-out: ED50 (mg/kg), Example, PO.
Procedure: Antimicrobial activity was tested in vivo using a Murine Assay procedure. Groups of female mice were injected intraperitoneally with bacteria which were thawed just prior to use and suspended in brain heart infusion with 4% Brewer's yeast UC9213 (Staphylococcus aureus) or brain hear infusion (Streptococcus species). Antibiotic treatment a six dose levels per drug was administered on hour and five hours after infection by either oral or subcutaneous routes. Survival was observed daily for six days. ED50 values based on mortality ratios were calculated using probit analysis. The subject compounds were compared against a well-known antibacterial (Vancomycin) as a control.
In Vivo Activity Against S. aureus UC ® 9213

SMILES	ED50
CC(=O)NC[C@H]1CN(c2ccc(N3C[C@@H]4C[C@H]3CO4)c(F)c2)C(=O)O1 [Example 1, (S)-N-[[3-[4-[(1S,4S)-2-oxa-5-azabicyclo[2.2.1]heptan-5-yl]-3-fluorophenyl]-2-oxo-5-oxazolikinyl]methyl]acetamide]	7.7 mg/kg
CC(=O)NC[C@H]1CN(c2ccc(N3C[C@@H]4C[C@H]3CS4)c(F)c2)C(=O)O1 [Example 2, (S)-N-[[3-[3-fluoro-4-[(1S,4S)-2-thia-5-azabicyclo[2.2.1]heptan-5-yl]-phenyl]-2-oxo-5-oxazolidinyl]methyl]acetamide]	4.2 mg/kg
CC(=O)NC[C@H]1CN(c2ccc(N3C[C@H]4CSC[C@H]4C3)c(F)c2)C(=O)O1 [Example 4, (S)-N-[[3-[3-fluoro-4-(tetrahydro-1H-thieno[3,4-c]pyrrol-5(3H)-yl)phenyl]-2-oxo-5-oxazolidinyl]methyl]acetamide]	4.3 mg/kg
CC(=O)NC[C@H]1CN(c2ccc(N3C[C@@H]4C[S+]([O-])C[C@@H]4C3)c(F)c2)C(=O)O1 (stereo partly drawn) [Example 5, (S)-N-[[3-[3-fluoro-4-(tetrahydro-1H-thieno[3,4-c]pyrrol-5(3H)-yl)phenyl]-2-oxo-5-oxazolidinyl]methyl]acetamide, S-oxide]	10 mg/kg
CC(=O)NC[C@H]1CN(c2ccc(N3C[C@@H]4CS(=O)(=O)C[C@@H]4C3)c(F)c2)C(=O)O1 [Example 6, (S)-N-[[3-[3-fluoro-4-(tetrahydro-1H-thieno[3,4-c]pyrrol-5(3H)-yl)phenyl]-2-oxo-5-oxazolidinyl]methyl]acetamide, S,S-dioxide]	3.5 mg/kg
